Species on record: Rattus norvegicus
Assay: DrugMatrix - Regimen: Daily Repeat
Type: toxicity, organism-based, Sprague-Dawley
Set-up: regimen Daily Repeat, gender Male, age 6-8 weeks
Settings: in vivo, po, 0 mg/kg, route oral GAVAGE, dose level Control, vehicle .5 % CMC; for BASOPHIL / EOSINOPHIL / ERYTHROCYTE COUNT / HEMATOCRIT / HEMOGLOBIN / LEUKOCYTE COUNT / LYMPHOCYTE / MEAN CORPUSCULAR HEMOGLOBIN / MEAN CORPUSCULAR HEMOGLOBIN CONCENTRATION / MEAN CORPUSCULAR VOLUME / MONOCYTE / NEUTROPHIL / PLATELET COUNT: tissue Blood; for ALANINE AMINOTRANSFERASE / ALBUMIN / ALKALINE PHOSPHATASE / ASPARTATE AMINOTRANSFERASE / BLOOD UREA NITROGEN / CARBON DIOXIDE / CHLORIDE / CHOLESTEROL / CREATINE PHOSPHOKINASE / CREATININE / GLUCOSE / LACTATE DEHYDROGENASE / LIPASE / PHOSPHORUS / POTASSIUM / SODIUM / TOTAL BILIRUBIN / TOTAL PROTEIN / URIC ACID: tissue Plasma

With CCOP(=S)(OCC)Oc1nc(Cl)c(Cl)cc1Cl [CHLORPYRIFOS] the BASOPHIL (72 h, time 3 day) was 0.62%, the EOSINOPHIL (72 h, time 3 day) was 0.52% and the “ERYTHROCYTE COUNT” value (72 h, time 3 day) was 6.33 x10E6/uL. The HEMATOCRIT (72 h, time 3 day) was 41.88%, the HEMOGLOBIN (72 h, time 3 day) was 13.52 G/DL and the “LEUKOCYTE COUNT” value (72 h, time 3 day) was 11.39 x10E3/uL. The LYMPHOCYTE (72 h, time 3 day) was 86.18%, the “MEAN CORPUSCULAR HEMOGLOBIN” value (72 h, time 3 day) was 21.35 pg and the “MEAN CORPUSCULAR HEMOGLOBIN CONCENTRATION” value (72 h, time 3 day) was 32.23 G/DL. The “MEAN CORPUSCULAR VOLUME” value (72 h, time 3 day) was 66.25 fL, the MONOCYTE (72 h, time 3 day) was 1.93% and the NEUTROPHIL (72 h, time 3 day) was 9.1%. The “PLATELET COUNT” value (72 h, time 3 day) was 1204.5 x10E3/uL, the “ALANINE AMINOTRANSFERASE” value (72 h, time 3 day) was 43 u/L and the ALBUMIN (72 h, time 3 day) was 4.08 G/DL. The “ALKALINE PHOSPHATASE” value (72 h, time 3 day) was 426.33 u/L, the “ASPARTATE AMINOTRANSFERASE” value (72 h, time 3 day) was 72.5 u/L and the “BLOOD UREA NITROGEN” value (72 h, time 3 day) was 16.67 mg/dL. The “CARBON DIOXIDE” value (72 h, time 3 day) was 28.33 mmol/L, the CHLORIDE (72 h, time 3 day) was 103.5 MEQ/L and the CHOLESTEROL (72 h, time 3 day) was 78.83 mg/dL. For the same compound, the “CREATINE PHOSPHOKINASE” value (72 h, time 3 day) was 325.67 u/L, the CREATININE (72 h, time 3 day) was 0.48 mg/dL and the GLUCOSE (72 h, time 3 day) was 171.67 mg/dL. For the same compound, the “LACTATE DEHYDROGENASE” value (72 h, time 3 day) was 107.33 u/L, the LIPASE (72 h, time 3 day) was 11.83 u/L and the PHOSPHORUS (72 h, time 3 day) was 12.55 mg/dL. The POTASSIUM (72 h, time 3 day) was 6.57 MEQ/L, the SODIUM (72 h, time 3 day) was 145.67 MEQ/L and the “TOTAL BILIRUBIN” value (72 h, time 3 day) was 0.42 mg/dL. The “TOTAL PROTEIN” value (72 h, time 3 day) was 6.1 G/DL, the “URIC ACID” value (72 h, time 3 day) was 1.57 mg/dL and the BASOPHIL (120 h, time 5 day) was 0.48%. For the same compound, the EOSINOPHIL (120 h, time 5 day) was 0.67%, the “ERYTHROCYTE COUNT” value (120 h, time 5 day) was 6.69 x10E6/uL and the HEMATOCRIT (120 h, time 5 day) was 44.17%. For the same compound, the HEMOGLOBIN (120 h, time 5 day) was 13.78 G/DL, the “LEUKOCYTE COUNT” value (120 h, time 5 day) was 7.86 x10E3/uL and the LYMPHOCYTE (120 h, time 5 day) was 85.9%. For the same compound, the “MEAN CORPUSCULAR HEMOGLOBIN” value (120 h, time 5 day) was 20.6 pg, the “MEAN CORPUSCULAR HEMOGLOBIN CONCENTRATION” value (120 h, time 5 day) was 31.25 G/DL and the “MEAN CORPUSCULAR VOLUME” value (120 h, time 5 day) was 65.9 fL. The MONOCYTE (120 h, time 5 day) was 3.27%, the NEUTROPHIL (120 h, time 5 day) was 8.67% and the “PLATELET COUNT” value (120 h, time 5 day) was 1182.33 x10E3/uL. The “ALANINE AMINOTRANSFERASE” value (120 h, time 5 day) was 37.5 u/L, the ALBUMIN (120 h, time 5 day) was 4 G/DL and the “ALKALINE PHOSPHATASE” value (120 h, time 5 day) was 348.17 u/L. The “ASPARTATE AMINOTRANSFERASE” value (120 h, time 5 day) was 71.67 u/L, the “BLOOD UREA NITROGEN” value (120 h, time 5 day) was 13 mg/dL and the “CARBON DIOXIDE” value (120 h, time 5 day) was 27 mmol/L. The CHLORIDE (120 h, time 5 day) was 104.67 MEQ/L, the CHOLESTEROL (120 h, time 5 day) was 73.33 mg/dL and the “CREATINE PHOSPHOKINASE” value (120 h, time 5 day) was 211.33 u/L. The CREATININE (120 h, time 5 day) was 0.23 mg/dL, the GLUCOSE (120 h, time 5 day) was 155 mg/dL and the “LACTATE DEHYDROGENASE” value (120 h, time 5 day) was 133.83 u/L. The LIPASE (120 h, time 5 day) was 11.17 u/L, the PHOSPHORUS (120 h, time 5 day) was 14.53 mg/dL and the POTASSIUM (120 h, time 5 day) was 6.65 MEQ/L. For the same compound, the SODIUM (120 h, time 5 day) was 148.17 MEQ/L, the “TOTAL BILIRUBIN” value (120 h, time 5 day) was 0.28 mg/dL and the “TOTAL PROTEIN” value (120 h, time 5 day) was 6.22 G/DL. For the same compound, the “URIC ACID” value (120 h, time 5 day) was 1.57 mg/dL, the BASOPHIL ([…], time 14 day) was 0.97% and the EOSINOPHIL ([…], time 14 day) was 0.8%. The “ERYTHROCYTE COUNT” value ([…], time 14 day) was 7.02 x10E6/uL, the HEMATOCRIT ([…], time 14 day) was 44.43% and the HEMOGLOBIN ([…], time 14 day) was 14.58 G/DL. For the same compound, the “LEUKOCYTE COUNT” value ([…], time 14 day) was 16.49 x10E3/uL, the LYMPHOCYTE ([…], time 14 day) was 79.03% and the “MEAN CORPUSCULAR HEMOGLOBIN” value ([…], time 14 day) was 20.85 pg. The “MEAN CORPUSCULAR HEMOGLOBIN CONCENTRATION” value ([…], time 14 day) was 32.78 G/DL, the “MEAN CORPUSCULAR VOLUME” value ([…], time 14 day) was 63.57 fL and the MONOCYTE ([…], time 14 day) was 1.9%. For the same compound, the NEUTROPHIL ([…], time 14 day) was 15.18%, the “PLATELET COUNT” value ([…], time 14 day) was 1184.33 x10E3/uL and the “ALANINE AMINOTRANSFERASE” value ([…], time 14 day) was 43 u/L. The ALBUMIN ([…], time 14 day) was 4.25 G/DL, the “ALKALINE PHOSPHATASE” value ([…], time 14 day) was 409.67 u/L and the “ASPARTATE AMINOTRANSFERASE” value ([…], time 14 day) was 84.17 u/L. For the same compound, the “BLOOD UREA NITROGEN” value ([…], time 14 day) was 16 mg/dL, the “CARBON DIOXIDE” value ([…], time 14 day) was 35.17 mmol/L and the CHLORIDE ([…], time 14 day) was 99.83 MEQ/L. The CHOLESTEROL ([…], time 14 day) was 68.67 mg/dL, the “CREATINE PHOSPHOKINASE” value ([…], time 14 day) was 384.17 u/L and the CREATININE ([…], time 14 day) was 0.43 mg/dL. The GLUCOSE ([…], time 14 day) was 160 mg/dL, the “LACTATE DEHYDROGENASE” value ([…], time 14 day) was 115.33 u/L and the LIPASE ([…], time 14 day) was 17.33 u/L. For the same compound, the PHOSPHORUS ([…], time 14 day) was 10.68 mg/dL, the POTASSIUM ([…], time 14 day) was 6.48 MEQ/L and the SODIUM ([…], time 14 day) was 148.17 MEQ/L. For the same compound, the “TOTAL BILIRUBIN” value ([…], time 14 day) was 0.45 mg/dL and the “TOTAL PROTEIN” value ([…], time 14 day) was 6.57 G/DL.

— ChEMBL document CHEMBL3885881, “DrugMatrix”
